# Measured values reported in the supplement of paper PMC10307832.
# Legend:
# Assay in all cases: relative viability (nuclei count vs DMSO), 5 days (fraction); higher = more cells survive
# PC-3 [JPC-3] = tested on: PC-3 [JPC-3]
# Procedure, shortened: (§1)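 Cells from lung cancer lines were seeded into 1536-well plates and, one day later, dosed by pin tool. Treatments were either a single drug or a fixed dose of an anchor drug with five library-drug doses (not always all listed) in √10 steps. After 5 days, nuclei were stained in a one-step fixation (final 0.05% Triton X-100, 1% formaldehyde, 1 ug/ml Hoechst) and counted on 4× images, and relative viability is the treated-to-vehicle nuclei ratio, as the median of duplicate plates.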
# COR-L23 = tested on: COR-L23
# Procedure, shortened: as §1
# SW 900 = tested on: SW 900
# Procedure, shortened: as §1
# NCI-H727 = tested on: NCI-H727
# Procedure, shortened: as §1
# NCI-H838 = tested on: NCI-H838
# Procedure, shortened: as §1
# NCI-H1793 = tested on: NCI-H1793
# Procedure, shortened: as §1
# PC-14 = tested on: PC-14
# Procedure, shortened: as §1
# NCI-H1944 = tested on: NCI-H1944
# Procedure, shortened: as §1
# LCLC-103H = tested on: LCLC-103H
# Procedure, shortened: as §1
# LCLC-97TM1 = tested on: LCLC-97TM1
# Procedure, shortened: as §1
# NCI-H1650 = tested on: NCI-H1650
# Procedure, shortened: as §1
compound,measurement,setting,value
NC(=O)Nc1cc(-c2cccc(F)c2)sc1C(=O)N[C@H]1CCCNC1 [AZD7762] + Nc1ncn([C@H]2C[C@H](O)[C@@H](CO)O2)c(=O)n1 [Decitabine] (partner 2 µM),relative viability,PC-3 [JPC-3]; first compound 0.01 µM,0.892
same,relative viability,PC-3 [JPC-3]; first compound 0.03162 µM,0.869
same,relative viability,PC-3 [JPC-3]; first compound 0.1 µM,0.949
same,relative viability,PC-3 [JPC-3]; first compound 0.3162 µM,0.848
same,relative viability,PC-3 [JPC-3]; first compound 1 µM,0.592
same,relative viability,COR-L23; first compound 0.01 µM,0.485
same,relative viability,COR-L23; first compound 0.03162 µM,0.535
same,relative viability,COR-L23; first compound 0.1 µM,0.563
same,relative viability,COR-L23; first compound 0.3162 µM,0.35
same,relative viability,COR-L23; first compound 1 µM,0.166
same,relative viability,SW 900; first compound 0.01 µM,0.402
same,relative viability,SW 900; first compound 0.03162 µM,0.477
same,relative viability,SW 900; first compound 0.1 µM,0.551
same,relative viability,SW 900; first compound 0.3162 µM,0.481
same,relative viability,SW 900; first compound 1 µM,0.451
same,relative viability,NCI-H727; first compound 0.01 µM,1.01
same,relative viability,NCI-H727; first compound 0.03162 µM,1.11
same,relative viability,NCI-H727; first compound 0.1 µM,0.895
same,relative viability,NCI-H727; first compound 0.3162 µM,0.959
same,relative viability,NCI-H727; first compound 1 µM,0.536
same,relative viability,NCI-H838; first compound 0.01 µM,0.661
same,relative viability,NCI-H838; first compound 0.03162 µM,0.568
same,relative viability,NCI-H838; first compound 0.1 µM,0.531
same,relative viability,NCI-H838; first compound 0.3162 µM,0.454
same,relative viability,NCI-H838; first compound 1 µM,0.283
same,relative viability,NCI-H1793; first compound 0.01 µM,0.437
same,relative viability,NCI-H1793; first compound 0.03162 µM,0.551
same,relative viability,NCI-H1793; first compound 0.1 µM,0.689
same,relative viability,NCI-H1793; first compound 0.3162 µM,1.28
same,relative viability,NCI-H1793; first compound 1 µM,0.39
same,relative viability,PC-14; first compound 0.01 µM,0.234
same,relative viability,PC-14; first compound 0.03162 µM,0.225
same,relative viability,PC-14; first compound 0.1 µM,0.166
same,relative viability,PC-14; first compound 0.3162 µM,0.137
same,relative viability,PC-14; first compound 1 µM,0.0898
same,relative viability,NCI-H1944; first compound 0.01 µM,0.46
same,relative viability,NCI-H1944; first compound 0.03162 µM,0.494
same,relative viability,NCI-H1944; first compound 0.1 µM,0.442
same,relative viability,NCI-H1944; first compound 0.3162 µM,0.497
same,relative viability,NCI-H1944; first compound 1 µM,0.44
same,relative viability,LCLC-103H; first compound 0.01 µM,0.766
same,relative viability,LCLC-103H; first compound 0.03162 µM,0.824
same,relative viability,LCLC-103H; first compound 0.1 µM,0.764
same,relative viability,LCLC-103H; first compound 0.3162 µM,0.725
same,relative viability,LCLC-103H; first compound 1 µM,0.829
same,relative viability,LCLC-97TM1; first compound 0.01 µM,0.259
same,relative viability,LCLC-97TM1; first compound 0.03162 µM,0.265
same,relative viability,LCLC-97TM1; first compound 0.1 µM,0.273
same,relative viability,LCLC-97TM1; first compound 0.3162 µM,0.303
same,relative viability,LCLC-97TM1; first compound 1 µM,0.346
same,relative viability,NCI-H1650; first compound 0.01 µM,0.606
same,relative viability,NCI-H1650; first compound 0.03162 µM,0.593
same,relative viability,NCI-H1650; first compound 0.1 µM,0.62
same,relative viability,NCI-H1650; first compound 0.3162 µM,0.477
same,relative viability,NCI-H1650; first compound 1 µM,0.284
